Results on 14 compounds are retold here after patent publication US7563813B2, “Iminothiazolidinone derivatives as SFRP-1 antagonists” (Wyeth, priority 2005, dated 2009).

SMILES strings stand for the structures.

The target in the assay is T1, hSFRP-1 (Homo sapiens, UniProt Q8N474).
T1 construct: expressed in transfected cells; host or cells: U2OS osteosarcoma cells (ATCC, HTB 96), transient co-transfection with Wnt 3, Wnt3A or Wnt 1, 16x TCF-tk-Luciferase reporter and CMV-beta-gal
T1 sequence (Q8N474 32-314): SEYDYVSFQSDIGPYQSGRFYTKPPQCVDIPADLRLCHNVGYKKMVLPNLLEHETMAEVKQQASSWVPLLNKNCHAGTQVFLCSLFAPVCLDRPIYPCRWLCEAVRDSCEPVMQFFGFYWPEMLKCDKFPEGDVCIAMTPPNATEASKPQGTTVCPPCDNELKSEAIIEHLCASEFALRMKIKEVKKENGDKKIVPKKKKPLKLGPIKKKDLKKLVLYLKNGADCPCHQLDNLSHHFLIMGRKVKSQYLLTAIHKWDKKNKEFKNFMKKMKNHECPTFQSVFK
In words: Cell-Based Assay for In Vitro Measurement of SFRP-1/SARP2 Antagonist Activity (U2OS cells, 16x TCF-tk-Luciferase reporter, Wnt + hSFRP-1 co-transfection). The note with it: initial single dose screening at 10 μM; for fold induction at 10 µM: luciferase reporter activity, fold induction over SFRP-1 control; for Ratio: ratio not defined. As to the method: Cell-Based Assay for In Vitro Measurement of SFRP-1/SARP2 Antagonist Activity
The following cell-based assay can be used to identify inhibitors of SFRP-1.
The osteosarcoma cell line, U2OS (ATCC, HTB 96), was passaged twice a week with growth medium (McCoy's SA medium containing 10% (v/v) fetal calf serum, 2 mM GlutaMAX-1, and 1% (v/v) Penicillin-Streptomycin). The cells were maintained in vented flasks at 37° C. inside a 5% CO2/95% humidified air incubator. One day prior to transfection, the cells were plated with growth medium at 25,000 cells/well into 96-well plates and incubated at 37° C. overnight.
The growth medium was removed, and the cells were washed once with OPTIMEM I (Gibco-BRL) medium (100 μl/well) to remove the serum and antibiotics. The wash medium was removed, and the cells were re-fed with OPTI-MEM I medium (100 μl/well). For each well of cells to be transfected, the following DNA's were diluted together in 25 μl OPTI-MEM I medium: 0.1 μg 16× TCF-tk-Luciferase reporter, 0.02 μg Wnt 3, Wnt3A, Wnt 1 or empty vector (Upstate Biotechnology), 0.075 μg hSFRP-1 or empty vector (pcDNA3.1, Invitrogen), and 0.025 μg CMV-®gal (Clonetech). For each well of cells to be transfected, 1 μl of Lipofectamine 2000 reagent (Invitrogen) was diluted in 25 μl OPTI-MEM I medium and incubated at room temperature for 5 minutes. The diluted DNA's were then combined with the diluted Lipofectamine 2000 (LF2000), and the mixture was incubated at room temperature for 20 minutes. Fifty μl of the DNA-LF 2000 mixture was added to each well, and the plate(s) were incubated at 37° C. in a 5% CO2/95% humidified air incubator for 4 hours. The cells were washed once with 150 μl/well of experimental medium (phenol red-free RPMI Medium 1640 containing 2% fetal bovine serum, 2 mM GlutaMAX-1, and 1% Penicillin-Streptomycin). Finally, the cells were treated overnight at 37° C. with 200 μl/well of experimental medium containing either vehicle (typically DMSO) or diluted compound in replicates of 8 wells/compound.
Initial single dose screening of test compounds was done at 10 μM.
Dose-response experiments were initially performed with the compounds in log increases from 1-10,000 nM. From these dose-response curves, EC50 values were generated.
After treatment, the cells were washed twice with 150 μl/well of PBS without calcium or magnesium and were lysed with 50 μl/well of 1× cell culture lysis reagent (Promega Corporation) on a shaker at room temperature for 30 minutes. Thirty μl aliquots of the cell lysates were transferred to 96-well luminometer plates, and luciferase activity was measured in a MicroLumat PLUS luminometer (EG&G Berthold), or a Victor (PerkinElmer Life Sciences) using […] of luciferase substrate (Promega Corporation). Following the injection of substrate, luciferase activity was measured for 10 seconds after a 1.6 second delay. Similarly, 10 μl aliquots of the cell lysates were transferred to separate 96-well luminometer plates, and 50 μl of Galacton chemiluminescent substrate (Tropix) was added to each well. The plates were covered and incubated on a rotary shaker at room temperature for one hour. ®gal activity was measured in a MicroLumat PLUS luminometer or Victor using 100 μl/well of Light Emission Accelerator (Tropix). Following the injection of the accelerator, ®gal activity was measured for 10 seconds after a 1.6 second delay. The luciferase and ®gal activity data were transferred from the luminometer to a PC and analyzed using the SAS/Excel program. After the luciferase activity was normalized to ®gal, the SAS/Excel program was used to determine the mean and standard deviation of each treatment, to analyze the data for statistical significance, and to determine EC50 values.
As an alternative to co-transfection in a 96 well plate, the U2OS cells were transfected in T225 flasks and the transfected cells were frozen. The frozen cells were thawed and plated on a 96 well plate and the assay was carried out as detailed above. […]

For orientation: fold induction means the signal under treatment as a multiple of the control signal. With `CCOC(=O)c1c(NC(=O)CC2SC(=N)NC2=O)sc(Br)c1CNC1CCCC1` (stereo not shown) [Example 63, ethyl 5-bromo-4-[(cyclopentylamino)methyl]-2-{[(2-imino-4-oxo-1,3-thiazolidin-5-yl)acetyl]amino}thiophene-3-carboxylate], the fold induction at 10 µM came out at 1.5 and the Ratio was 1.1.

As for `N=C1NC(=O)C(CC(=O)Nc2cccc(Cl)c2Cl)S1` (stereo not shown) [Example 28, N-(2,3-dichlorophenyl)-2-(2-imino-4-oxo-1,3-thiazolidin-5-yl)acetamide], the fold induction at 10 µM amounted to 1.2 and the Ratio was determined as 1.0.

For the compound `N=C1NC(=O)C(CC(=O)Nc2cccc(F)c2)S1` (stereo not shown) [Example 3, N-(3-fluorophenyl)-2-(2-imino-4-oxo-1,3-thiazolidin-5-yl)acetamide], the fold induction at 10 µM is 1.5 and the Ratio is given as 1.3.

`COC(=O)c1sc(C(C)(C)C)cc1NC(=O)CC1SC(=N)NC1=O` (stereo not shown) [Example 42, methyl 5-tert-butyl-3-{[(2-imino-4-oxo-1,3-thiazolidin-5-yl)acetyl]amino}thiophene-2-carboxylate]: the fold induction at 10 µM was 1.5 and the Ratio stood at 1.7.

Regarding `N=C1NC(=O)C(CC(=O)NCc2cccc(C(F)(F)F)c2)S1` (stereo not shown) [Example 19, 2-(2-imino-4-oxo-1,3-thiazolidin-5-yl)-N-[3-(trifluoromethyl)benzyl]acetamide], the fold induction at 10 µM stood at 1.1 and the Ratio stood at 0.9.

With `Cc1cc(NC(=O)CC2SC(=N)NC2=O)on1` (stereo not shown) [Example 13, 2-(2-imino-4-oxo-1,3-thiazolidin-5-yl)-N-(3-methylisoxazol-5-yl)acetamide], the fold induction at 10 µM stood at 1 and the Ratio was found to be 1.0.

With `CC(=O)Nc1cccc(NC(=O)CC2SC(=N)NC2=O)c1` (stereo not shown) [Example 5, N-[3-(acetylamino)phenyl]-2-(2-imino-4-oxo-1,3-thiazolidin-5-yl)acetamide], the fold induction at 10 µM was found to be 1.3 and the Ratio is 1.2.

Consider `CCOC(=O)c1c(NC(=O)CC2SC(=N)NC2=O)sc2c1CCC2` (stereo not shown) [Example 44, ethyl 2-{[(2-imino-4-oxo-1,3-thiazolidin-5-yl)acetyl]amino}-5,6-dihydro-4H-cyclopenta[b]thiophene-3-carboxylate], for which the fold induction at 10 µM stood at 1.6 and the Ratio amounted to 1.5.

Consider `N=C1NC(=O)C(CC(=O)Nc2ccc(F)c(F)c2)S1` (stereo not shown) [Example 9, N-(3,4-difluorophenyl)-2-(2-imino-4-oxo-1,3-thiazolidin-5-yl)acetamide], for which the fold induction at 10 µM turned out to be 1.6 and the Ratio is recorded as 1.5.

On to `N=C1NC(=O)C(CC(=O)Nc2cccc(F)c2F)S1` (stereo not shown) [Example 8, N-(2,3-difluorophenyl)-2-(2-imino-4-oxo-1,3-thiazolidin-5-yl)acetamide], for which the fold induction at 10 µM is 1.1 and the Ratio turned out to be 1.0.

In the case of `C#Cc1cccc(NC(=O)CC2SC(=N)NC2=O)c1` (stereo not shown) [Example 14, N-(3-ethynylphenyl)-2-(2-imino-4-oxo-1,3-thiazolidin-5-yl)acetamide], the fold induction at 10 µM worked out at 1.8 and the Ratio was 1.6.

In the case of `CCOC(=O)c1c(NC(=O)CC2SC(=N)NC2=O)sc2c1CCCC2` (stereo not shown) [Example 35, ethyl 2-{[(2-imino-4-oxo-1,3-thiazolidin-5-yl)acetyl]amino}-4,5,6,7-tetrahydro-1-benzothiophene-3-carboxylate], the fold induction at 10 µM worked out at 1.4 and the Ratio is reported as 1.6.

`COC(=O)c1cc(-c2ccccc2)sc1NC(=O)CC1SC(=N)NC1=O` (stereo not shown) [Example 56, methyl 2-{[(2-imino-4-oxo-1,3-thiazolidin-5-yl)acetyl]amino}-5-phenylthiophene-3-carboxylate]: the fold induction at 10 µM amounted to 0.9 and the Ratio turned out to be 0.9.

Turning to `N=C1NC(=O)C(CC(=O)Nc2sc3c(c2C(N)=O)CCCC3)S1` (stereo not shown) [Example 32, 2-{[(2-imino-4-oxo-1,3-thiazolidin-5-yl)acetyl]amino}-4,5,6,7-tetrahydro-1-benzothiophene-3-carboxamide], the fold induction at 10 µM was 1 and the Ratio amounted to 1.1.
